The results in this text go back to ChEMBL document CHEMBL1130552, “Synthesis and biological evaluation of 14,15-dehydro-LTA4 analog” (1997).

The species entered for the experiment is Cavia porcellus. Description: Relative contractile potency in guinea pig ileum assay compared to 14,15-dehydro-LTA 4 methyl ester. Type of experiment: functional.

As to `CCCCCC#CC\C=C/C=C/C=C/[C@@H](SC[C@H](NC(=O)CC[C@H](N)C(=O)O)C(=O)NCC(=O)O)[C@@H](O)CCCC(=O)O`, the Relative contractile potency is given as 0.9.
